US9302999B2, “Substituted triazoles as herbicides” (E. I. DU PONT DE NEMOURS AND COMPANY, priority 2012, dated 2016)
Where two headings read alike, the source gives them in different places.

What was measured:
Assay type in all cases: in vivo
[1] = system: crabgrass, large (large crabgrass, Digitaria sanguinalis); test: Test A pre-/postemergence: crabgrass, large; conditions: Digitaria sanguinalis, 240 h; for pest or weed control at 125 g/ha: 125 g ai/ha; for pest or weed control at 500 g/ha: 500 g ai/ha
In short: (§1)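 Compounds, formulated with surfactant in non-phytotoxic solvent, were applied as a directed soil spray preemergence and as postemergence sprays to 2–10 cm, one- to two-leaf seedlings grown in loam soil blended with sand; visual injury, 0–100, assessed ~10 days post-treatment against untreated controls.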

[2] = system: morningglory (Ipomoea spp.); test: Test A pre-/postemergence: morningglory; conditions: Ipomoea, 240 h; for pest or weed control at 125 g/ha: 125 g ai/ha; for pest or weed control at 500 g/ha: 500 g ai/ha
In short: as §1

[3] = system: pigweed (Amaranthus retroflexus); test: Test A pre-/postemergence: pigweed; conditions: Amaranthus retroflexus, 240 h; for pest or weed control at 125 g/ha: 125 g ai/ha; for pest or weed control at 500 g/ha: 500 g ai/ha
In short: as §1

[4] = system: barnyardgrass (Echinochloa crus-galli); test: Test A pre-/postemergence: barnyardgrass; conditions: Echinochloa crus-galli, 240 h; for pest or weed control at 125 g/ha: 125 g ai/ha; for pest or weed control at 500 g/ha: 500 g ai/ha
In short: as §1

[5] = system: lambsquarters (Chenopodium album); test: Test C pre-/postemergence: lambsquarters
Text: (§2) Seeds of plant species selected from blackgrass (Alopecurus myosuroides), bromegrass, downy (downy bromegrass, Bromus tectorum), foxtail, green (green foxtail, Setaria viridis), ryegrass, Italian (Italian ryegrass, Lolium multiflorum), winter wheat (Triticum aestivum), wild oat (Avena fatua), galium (catchweed bedstraw, Galium aparine), bermudagrass (Cynodon dactylon), surinam grass (Brachiaria decumbens), cocklebur (common cocklebur, Xanthium strumarium), corn (Zea mays), large crabgrass (Digitaria sanguinalis), woolly cupgrass (Eriochloa villosa), foxtail, giant (giant foxtail, Setaria faberii), goosegrass (Eleusine indica), johnsongrass (Sorghum halepense), kochia (Kochia scoparia), lambsquarters (Chenopodium album), morningglory (Ipomoea coccinea), nightshade (eastern black nightshade, Solanum ptycanthum), nutsedge, yellow (yellow nutsedge, Cyperus esculentus), pigweed (Amaranthus retroflexus), ragweed (common ragweed, Ambrosia elation), soybean (Glycine max), common (oilseed) sunflower (Helianthus annuus), Russian thistle (Salsola kali) and velvetleaf (Abutilon theophrasti) were planted into a blend of loam soil and sand and treated preemergence with test chemicals formulated in a non-phytotoxic solvent mixture which included a surfactant.
(§3) At the same time, plants selected from these crop and weed species and also barley (winter barley, Hordeum vulgare), canarygrass (Phalaris minor), chickweed (common chickweed, Stellaria media) windgrass (Apera spica-venti) and deadnettle (henbit deadnettle, Lamium amplexicaule) were planted in pots containing Redi-Earth® planting medium (Scotts Company, 14111 Scottslawn Road, Marysville, Ohio 43041) comprising spaghnum peat moss, vermiculite, wetting agent and starter nutrients and treated with postemergence applications of test chemicals formulated in the same manner. Plants ranged in height from 2 to 18 cm (1- to 4-leaf stage) for postemergence treatments.
(§4) Treated plants and controls were maintained in a greenhouse for 13 to 15 days, after which time all species were compared to controls and visually evaluated. Plant response ratings, summarized in Table C, are based on a scale of 0 to 100 where 0 is no effect and 100 is complete control. A dash (-) response means no test result.

[6] = system: ragweed (common ragweed, Ambrosia elation); test: Test C pre-/postemergence: ragweed; conditions: Postemergence
Text: as §2, §3, §4

soybean (Glycine max) = test: Test C pre-/postemergence: soybean
Text: as §2, §3, §4

[7] = system: blackgrass (Alopecurus myosuroides); test: Test C pre-/postemergence: blackgrass
Text: as §2, §3, §4

[8] = post-emergence, Postemergence, 0 to 100 scale, 0 is no effect, 100 is complete control, read-out: Crabgrass, Large plant response rating
[9] = post-emergence, Postemergence, visual rating on 0 to 100 scale (0 no effect, 100 complete control), approximately ten days, read-out: Crabgrass, Large plant response rating
[10] = pre-emergence, Preemergence, 0 to 100 scale (0 no effect, 100 complete control), read-out: Plant response rating, Crabgrass, Large
[11] = pre-emergence, Preemergence, 0 to 100 scale, 0 is no effect, 100 is complete control, read-out: Plant response rating, Crabgrass, Large
[12] = post-emergence, Postemergence, 0 to 100 scale, 0 is no effect, 100 is complete control, read-out: Morningglory plant response rating
[13] = post-emergence, Postemergence, visual rating on 0 to 100 scale (0 no effect, 100 complete control), approximately ten days, read-out: Morningglory plant response rating
[14] = pre-emergence, Preemergence, 0 to 100 scale (0 no effect, 100 complete control), read-out: Plant response rating, Morningglory
[15] = pre-emergence, Preemergence, 0 to 100 scale, 0 is no effect, 100 is complete control, read-out: Plant response rating, Morningglory
[16] = post-emergence, Postemergence, 0 to 100 scale, 0 is no effect, 100 is complete control, read-out: Pigweed plant response rating
[17] = post-emergence, Postemergence, visual rating on 0 to 100 scale (0 no effect, 100 complete control), approximately ten days, read-out: Pigweed plant response rating
[18] = pre-emergence, Preemergence, 0 to 100 scale (0 no effect, 100 complete control), read-out: Plant response rating, Pigweed
[19] = pre-emergence, Preemergence, 0 to 100 scale, 0 is no effect, 100 is complete control, read-out: Plant response rating, Pigweed
[20] = post-emergence, Postemergence, 0 to 100 scale, 0 is no effect, 100 is complete control, read-out: Barnyardgrass plant response rating
[21] = post-emergence, Postemergence, visual rating on 0 to 100 scale (0 no effect, 100 complete control), approximately ten days, read-out: Barnyardgrass plant response rating
[22] = pre-emergence, Preemergence, 0 to 100 scale (0 no effect, 100 complete control), read-out: Plant response rating, Barnyardgrass
[23] = pre-emergence, Preemergence, 0 to 100 scale, 0 is no effect, 100 is complete control, read-out: Plant response rating, Barnyardgrass
[24] = Postemergence, 31 g ai/ha, scale 0 to 100 (0 no effect, 100 complete control)
[25] = Postemergence, 62 g ai/ha, scale 0 to 100 (0 no effect, 100 complete control)
[26] = Postemergence, 125 g ai/ha, scale 0 to 100, 0 no effect, 100 complete control
[27] = Postemergence, 250 g ai/ha, scale 0 to 100
[28] = Preemergence, 31 g ai/ha, scale of 0 to 100, 0 is no effect, 100 is complete control
[29] = Preemergence, 62 g ai/ha, scale of 0 to 100, 0 is no effect, 100 is complete control
[30] = Preemergence, 125 g ai/ha, scale 0 to 100, 0 no effect, 100 complete control
[31] = Preemergence, 250 g ai/ha, scale 0 to 100, 0 no effect, 100 complete control

Cc1nn(-c2ccc(C(F)(F)F)cc2)nc1Oc1csc(C(F)(F)F)c1 [Compound 1, 4-methyl-2-[4-(trifluoromethyl)phenyl]-5-[[5-(trifluoromethyl)-3-thienyl]oxy]-2H-1,2,3-triazole]
pest or weed control at 125 g/ha [1, 8]: 70%
pest or weed control at 500 g/ha [1, 9]: 90%
pest or weed control at 125 g/ha [1, 10]: 70%
pest or weed control at 500 g/ha [1, 11]: 100%
pest or weed control at 125 g/ha [2, 12]: 50%
pest or weed control at 500 g/ha [2, 13]: 100%
pest or weed control at 125 g/ha [2, 14]: 0%
pest or weed control at 500 g/ha [2, 15]: 20%
pest or weed control at 125 g/ha [3, 16]: 90%
pest or weed control at 500 g/ha [3, 17]: 100%
pest or weed control at 125 g/ha [3, 18]: 60%
pest or weed control at 500 g/ha [3, 19]: 90%
pest or weed control at 125 g/ha [4, 20]: 0%
pest or weed control at 500 g/ha [4, 21]: 20%
pest or weed control at 125 g/ha [4, 22]: 20%
pest or weed control at 500 g/ha [4, 23]: 50%

FC(F)(F)COc1nn(-c2ccc(C(F)(F)F)cc2)nc1Cc1ccnc(C(F)(F)F)c1 [Compound 14, 4-[[5-(2,2,2-trifluoroethoxy)-2-[4-(trifluoromethyl)phenyl]-2H-1,2,3-triazol-4-yl]methyl]-2-(trifluoromethyl)pyridine]
Plant response rating, Lambsquarters [5, 24]: 100
Plant response rating, Lambsquarters [5, 25]: 100
Plant response rating, Lambsquarters [5, 26]: 100
Plant response rating, Lambsquarters [5, 27]: 100
Plant response rating, Lambsquarters [5, 28]: 95
Plant response rating, Lambsquarters [5, 29]: 100
Plant response rating, Lambsquarters [5, 30]: 100
Plant response rating, Lambsquarters [5, 31]: 100
pest or weed control at 125 g/ha [1, 8]: 80%
pest or weed control at 500 g/ha [1, 9]: 90%
pest or weed control at 125 g/ha [1, 10]: 90%
pest or weed control at 500 g/ha [1, 11]: 100%
Plant response rating, Ragweed ([6]; 31 g ai/ha, scale 0 to 100 (0 no effect, 100 complete control)): 55
Plant response rating, Ragweed ([6]; 62 g ai/ha, scale 0 to 100 (0 no effect, 100 complete control)): 55
Plant response rating, Ragweed ([6]; 125 g ai/ha, scale 0 to 100, 0 no effect, 100 complete control): 60
Plant response rating, Ragweed ([6]; 250 g ai/ha, scale 0 to 100): 80
pest or weed control at 125 g/ha [2, 12]: 80%
pest or weed control at 500 g/ha [2, 13]: 100%
pest or weed control at 125 g/ha [2, 14]: 60%
pest or weed control at 500 g/ha [2, 15]: 80%
pest or weed control at 125 g/ha [3, 16]: 100%
pest or weed control at 500 g/ha [3, 17]: 100%
pest or weed control at 125 g/ha [3, 18]: 90%
pest or weed control at 500 g/ha [3, 19]: 100%
Plant response rating, Soybean (soybean (Glycine max); [24]): 25
Plant response rating, Soybean (soybean (Glycine max); [25]): 25
Plant response rating, Soybean (soybean (Glycine max); [26]): 30
Plant response rating, Soybean (soybean (Glycine max); [27]): 35
Plant response rating, Soybean (soybean (Glycine max); [28]): 0
Plant response rating, Soybean (soybean (Glycine max); [29]): 0
Plant response rating, Soybean (soybean (Glycine max); [30]): 0
Plant response rating, Soybean (soybean (Glycine max); [31]): 0
Plant response rating, Blackgrass [7, 24]: 15
Plant response rating, Blackgrass [7, 25]: 40
Plant response rating, Blackgrass [7, 26]: 60
Plant response rating, Blackgrass [7, 27]: 85
Plant response rating, Blackgrass [7, 28]: 5
Plant response rating, Blackgrass ([7]; Preemergence, 62 g ai/ha, scale 0 to 100, 0 no effect, 100 complete control): 40
Plant response rating, Blackgrass [7, 30]: 85
Plant response rating, Blackgrass [7, 31]: 98
pest or weed control at 125 g/ha [4, 20]: 80%
pest or weed control at 500 g/ha [4, 21]: 90%
pest or weed control at 125 g/ha [4, 22]: 70%
pest or weed control at 500 g/ha [4, 23]: 90%
